{"source": "paper PMC11025498", "about": "“First-in-human Phase I Trial of TPST-1120, an Inhibitor of PPARα, as Monotherapy or in Combination with Nivolumab, in Patients with Advanced Solid Tumors” (Cancer Research Communications, 2024)", "key": {"[1]": {"tested_on": "RCC", "assay": "prior regimens of the RCC responders", "assay_type": "in vivo, human", "settings": "prior regimens of person RCC responder"}, "[2]": {"tested_on": "patients with PD-L1 combined positive score ≤1", "parameters": "method as in PMID 32359091, PMID 32352498, PMID 35611499, PMID 34907910", "settings": "CCA, KEYNOTE-158; cited from earlier work"}, "[3]": {"tested_on": "patients with RCC", "settings": "nivolumab monotherapy after previous ICI therapy, retrospective, cited from earlier work"}}, "note": "Like-named read-outs stand apart in the source and are kept apart here."}
{"molecule": "COc1cc2nccc(Oc3ccc(NC(=O)C4(C(=O)Nc5ccc(F)cc5)CC4)cc3)c2cc1OC", "note": "[Cabozantinib]", "values": [{"measurement": "Duration", "setting": "[1]", "result": 6.3, "unit": "mo"}]}
{"molecule": "CO[C@H]1C[C@@H]2CC[C@@H](C)[C@@](O)(O2)C(=O)C(=O)N2CCCC[C@H]2C(=O)O[C@H]([C@H](C)C[C@@H]2CC[C@@H](OCCO)[C@H](OC)C2)CC(=O)[C@H](C)/C=C(\\C)[C@@H](O)[C@@H](OC)C(=O)[C@H](C)C[C@H](C)/C=C/C=C/C=C/1C", "note": "[Everolimus]", "values": [{"measurement": "Duration", "setting": "[1]", "result": 6.1, "unit": "mo"}]}
{"molecule": "pembrolizumab: ICI monotherapy in the KEYNOTE-158 trial", "values": [{"measurement": "ORR", "setting": "[2]", "result": 2.9, "unit": "%"}]}
{"molecule": "nivolumab: PD-1 inhibitor", "values": [{"measurement": "ORR", "setting": "[3]; ref 33", "result": 16, "unit": "%"}, {"measurement": "ORR", "setting": "[3]; ref 34", "result": 23, "unit": "%"}]}
